The target in assay [1] is T1, ΔCTD_Reg1 (amino acids 1 to 546 of human Regnase-1) phosphorylation by IKKβ (Homo sapiens, UniProt Q5D1E8).
T1 construct: made in house; host or cells: Expi293 cells
T1 sequence (Q5D1E8 1-546): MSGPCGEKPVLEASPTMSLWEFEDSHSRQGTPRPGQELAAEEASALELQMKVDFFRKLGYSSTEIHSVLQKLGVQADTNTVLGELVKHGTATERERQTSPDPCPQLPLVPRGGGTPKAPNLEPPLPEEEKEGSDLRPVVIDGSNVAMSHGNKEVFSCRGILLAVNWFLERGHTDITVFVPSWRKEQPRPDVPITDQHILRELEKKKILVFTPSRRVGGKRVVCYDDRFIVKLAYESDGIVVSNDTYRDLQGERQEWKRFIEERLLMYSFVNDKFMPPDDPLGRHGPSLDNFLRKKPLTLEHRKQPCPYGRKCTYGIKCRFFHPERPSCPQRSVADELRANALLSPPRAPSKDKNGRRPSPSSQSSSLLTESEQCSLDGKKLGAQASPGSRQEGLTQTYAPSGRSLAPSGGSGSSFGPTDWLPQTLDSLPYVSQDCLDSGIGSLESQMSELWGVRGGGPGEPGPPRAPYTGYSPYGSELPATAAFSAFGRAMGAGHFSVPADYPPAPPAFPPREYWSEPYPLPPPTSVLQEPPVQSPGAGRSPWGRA
Put plainly: Regnase-1 phosphorylation inhibition by compounds (AlphaScreen), IKKβ, CTD-deficient Regnase-1. It counts as biochemical. The method, then:
Among the full-length human Regnase-1 sequence, the 1st to 546th amino acid sequence was prepared and made into a construct having a FLAG tag on the N-terminal side and a biotin ligase BirA recognition sequence on the C-terminal side (herein, a Regnase-1 lacking the C-terminal domain of Regnase-1 (amino acids 547 to 599 in the case of SEQ ID NO: 2) is referred to as “ΔCTD_Reg1”. “ΔCTD_Reg1” is different from “Regnase-1ΔCTD”, which is a C-terminal domain deletion variant resulting from a frameshift mutation caused by a 1 bp deletion at codon 517, as prepared in Example 13). In addition, the sequence from amino acids 301 to 599 of the full-length human Regnase-1 sequence was designated as C-terminal Regnase-1, and a construct having a FLAG tag on the N-terminal side and a recognition sequence for biotin ligase BirA on the C-terminal side was prepared (Reg1_301-599). The above-mentioned Regnase-1 was expressed in mammalian Expi293 cells, purified with FLAG M2 agarose, and isolated by gel filtration chromatography. When biotinylation was required, methods of nonpatent documents (BMC biotechnology, 2008,8,41; and Protein Science, 1999,8,921-929) were used.
Using Kinase assay buffer III (manufactured by SignalChem) supplemented with 2 mM DTT, 100 μM sodium vanadate, and 2 mM manganese chloride, kinase (IKKβ (manufactured by SignalChem) or TBK1 (manufactured by SignalChem)) and Regnase-1 were reacted in the presence of 10 μM ATP at room temperature for 2 hours to perform a phosphorylation reaction.
Phosphorylated Regnase-1 was detected by the AlphaScreen system. After each of the above-mentioned phosphorylated Regnase-1 antibodies was added and reacted at room temperature for one hour, anti-FLAG AlphaLISA Acceptor Beads (manufactured by PerkinElmer) and Protein A AlphaScreen Donor Beads (manufactured by PerkinElmer) were added, and EnVision (manufactured by PerkinElmer) was used to measure the excited luminescence. As a result, phosphorylated Regnase-1 produced by the phosphorylation reaction by kinase was specifically detected, and signals were confirmed to be enhanced in a manner dependent on Regnase-1 and kinase concentrations (FIG. 24).
After mixing 2 nM of the above-mentioned Regnase-1 and the compound, phosphorylated Regnase-1 produced by the phosphorylation reaction was detected by the AlphaScreen system. As the results, the inhibition rate was calculated from the signals obtained when adding the compound at each concentration, by defining the signal obtained with Regnase-1 alone to be 100% inhibition rate, and the signal obtained when the same amount of solvent (DMSO) is added in place of the compound as 0% inhibition rate. The 50% inhibition concentration (μM) was calculated from the obtained dose response curve (Table 11).
(In general: Bead proximity is the source of the signal in Alpha formats.)

Assay [2] deals with T2, binding between IKKβ and full-length Regnase-1 (FL_Reg1) (Homo sapiens, UniProt Q5D1E8).
T2 construct: made in house; host or cells: Expi293 cells
T2 sequence (Q5D1E8 1-599): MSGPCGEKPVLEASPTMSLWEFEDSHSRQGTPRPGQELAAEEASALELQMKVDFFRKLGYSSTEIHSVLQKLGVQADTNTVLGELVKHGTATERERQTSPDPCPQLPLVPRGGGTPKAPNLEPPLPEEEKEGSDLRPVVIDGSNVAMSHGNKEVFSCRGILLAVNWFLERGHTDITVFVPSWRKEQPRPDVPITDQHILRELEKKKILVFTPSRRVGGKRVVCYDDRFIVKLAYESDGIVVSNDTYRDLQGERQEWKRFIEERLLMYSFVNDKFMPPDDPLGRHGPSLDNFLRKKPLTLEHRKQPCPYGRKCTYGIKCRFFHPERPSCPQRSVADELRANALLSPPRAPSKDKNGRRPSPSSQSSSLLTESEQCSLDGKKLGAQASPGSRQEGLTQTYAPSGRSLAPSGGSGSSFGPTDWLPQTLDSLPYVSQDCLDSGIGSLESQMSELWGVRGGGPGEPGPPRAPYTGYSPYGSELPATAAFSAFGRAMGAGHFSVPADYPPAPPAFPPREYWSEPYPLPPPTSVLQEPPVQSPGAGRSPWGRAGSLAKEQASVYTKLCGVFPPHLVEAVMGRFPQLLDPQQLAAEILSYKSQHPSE
Put plainly: Inhibition of kinase-Regnase-1 binding by the compounds (AlphaScreen), IKKβ. The procedure, abridged:
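Read-out was AlphaScreen luminescence using anti-FLAG acceptor and glutathione donor beads, with Regnase-1 alone set as 100% and DMSO as 0% inhibition to fit IC50. Compound was premixed with 2.5 nM full-length human Regnase-1 (Expi293-expressed, FLAG/BirA-tagged). 2.5 nM TBK1 or IKKβ was then added for 2 h at room temperature.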

[3] abbreviates: Table 11, 2 nM Regnase-1, AlphaScreen, read-out: 50% inhibition concentration, Regnase-1 phosphorylation, ΔCTD_Reg1, IKKβ.
Where [4] appears, read: Table 14, phosphorylation by IKKβ, read-out: Phosphorylation inhibition ΔCTD_Reg1, 50% inhibition concentration (IKKβ).
The mark [5] stands for this setting: Table 12, 2.5 nM Regnase-1, 2.5 nM IKKβ, AlphaScreen, read-out: 50% inhibition concentration, binding between Regnase-1 and IKKβ, FL_Reg1.
Setting [6] is: Table 14, binding between IKKβ and Regnase-1, read-out: Binding inhibition FL_Reg1, 50% inhibition concentration (IKKβ).

Consider 9 molecules from patent US20250018014A1, “METHOD FOR TREATING AND/OR PREVENTING REGNASE-1-RELATED DISEASE” (OSAKA UNIVERSITY, priority 2018, published 2025).

Where two headings read alike, the source gives them in different places. Residues, ends and D or L forms follow the SMILES beside them. Bounds are passed on as bounds.

As to `CC(C)[C@@H]1NC(=O)[C@H](CCCCN)NC(=O)[C@H](Cc2ccc(O)cc2)NC(=O)[C@H](Cc2c[nH]c3ccccc23)NC(=O)[C@H](CO)NC(=O)[C@H]([C@@H](C)O)NC(=O)[C@H](C)N(C)C(=O)C[C@@H](C(=O)N2CCCC2)NC(=O)[C@H](CCC(N)=O)NC(=O)CNC(=O)[C@H](Cc2c[nH]c3ccccc23)NC(=O)[C@H](CC(N)=O)NC1=O` [PP1] (HELM PEPTIDE1{[meA].T.S.W.Y.K.V.N.W.G.Q.D.[C1CCN([*:1])C1]}$PEPTIDE1,PEPTIDE1,1:R1-12:R3$$$V2.0), the IC50 in assay [1] (setting [3]), in assay [1] (setting [4]), in assay [2] (setting [5]) and in assay [2] (setting [6]) was more than 62.1 µM throughout.
On to `CC[C@H](C)[C@@H]1NC(=O)[C@H](CCCCN)NC(=O)[C@H](Cc2ccccc2)NC(=O)[C@H](Cc2c[nH]c3ccccc23)NC(=O)[C@H](CO)NC(=O)[C@H](CO)NC(=O)[C@H](CC(N)=O)NC(=O)[C@@H]2CCCN2C(=O)[C@@H](C)N(C)C(=O)C[C@@H](C(=O)N2CCCC2)NC(=O)[C@H](Cc2c[nH]c3ccccc23)NC1=O` [PP6] (HELM PEPTIDE1{[C[C@H](C(=O)[*:2])N(C)[*:1]].P.N.S.S.W.F.K.I.W.D.[C1CCN([*:1])C1]}$PEPTIDE1,PEPTIDE1,1:R1-11:R3$$$V2.0), for which the IC50 came out at 20.3 µM in assay [1] (setting [3]) and 42.1 µM in assay [2] (setting [5]).
In the same order, the values of `CC[C@H](C)[C@@H]1NC(=O)[C@H](Cc2ccc(O)cc2)NC(=O)[C@H](C)N(C)C(=O)C[C@@H](C(=O)N2CCCC2)NC(=O)[C@H](CC(C)C)NC(=O)[C@H](CC(=O)O)NC(=O)CNC(=O)[C@H](Cc2ccccc2)NC(=O)[C@H](Cc2ccccc2)NC(=O)[C@H](CC(=O)O)NC(=O)[C@H](Cc2c[nH]c3ccccc23)NC1=O` [PP4] (HELM PEPTIDE1{[meA].Y.I.W.D.F.F.G.D.L.D.[C1CCN([*:1])C1]}$PEPTIDE1,PEPTIDE1,1:R1-11:R3$$$V2.0) are 8.3 µM and 47.7 µM.
The matching figures for `CC[C@H](C)[C@@H]1NC(=O)[C@H](CC(N)=O)NC(=O)[C@H](Cc2ccc(O)cc2)NC(=O)[C@H](Cc2c[nH]c3ccccc23)NC(=O)[C@H](C)NC(=O)[C@H](CC(N)=O)NC(=O)[C@H](CO)NC(=O)[C@H](Cc2c[nH]cn2)NC(=O)[C@H](C)N(C)C(=O)C[C@@H](C(=O)N2CCCC2)NC(=O)[C@H](Cc2c[nH]c3ccccc23)NC1=O` [PP5] (HELM PEPTIDE1{[meA].H.S.N.A.W.Y.N.I.W.D.[C1CCN([*:1])C1]}$PEPTIDE1,PEPTIDE1,1:R1-11:R3$$$V2.0): 20.4 µM and 24 µM.
Turning to `CC[C@H](C)[C@@H]1NC(=O)[C@H](Cc2c[nH]c3ccccc23)NC(=O)[C@@H](Cc2ccccc2)NC(=O)[C@H](CCCCN)NC(=O)[C@H](C)N(C)C(=O)C[C@@H](C(=O)N2CCCC2)NC(=O)[C@H](CCC(=O)O)NC(=O)[C@H](Cc2ccccc2)NC(=O)[C@H](CO)NC(=O)[C@H](Cc2c[nH]cn2)NC(=O)[C@H](Cc2c[nH]cn2)NC1=O` [PP20] (HELM PEPTIDE1{[meA].K.[dF].W.I.H.H.S.F.E.D.[C1CCN([*:1])C1]}$PEPTIDE1,PEPTIDE1,1:R1-11:R3$$$V2.0), the IC50 in assay [1] (setting [4]) and in assay [2] (setting [6]) was more than 62.1 µM throughout.
Regarding `CC[C@H](C)[C@@H]1NC(=O)[C@H](CC(N)=O)NC(=O)[C@H](Cc2ccc(O)cc2)NC(=O)[C@H](Cc2c[nH]c3ccccc23)NC(=O)[C@H](CO)NC(=O)[C@H](CC(N)=O)NC(=O)[C@H](C)NC(=O)[C@H](Cc2ccc(O)cc2)NC(=O)CNC(=O)[C@H](C)N(C)C(=O)C[C@@H](C(=O)N2CCCC2)NC(=O)[C@H](Cc2c[nH]c3ccccc23)NC1=O` [PP2] (HELM PEPTIDE1{[meA].G.Y.A.N.S.W.Y.N.I.W.D.[C1CCN([*:1])C1]}$PEPTIDE1,PEPTIDE1,1:R1-12:R3$$$V2.0), the IC50 is 14 µM in assay [1] (setting [3]) and 35.8 µM in assay [2] (setting [5]).
In the same order, the values of `CC[C@H](C)[C@@H]1NC(=O)[C@H](CCCNC(=N)N)NC(=O)[C@H](Cc2ccc(O)cc2)NC(=O)[C@H](Cc2c[nH]c3ccccc23)NC(=O)[C@H](C)NC(=O)[C@H](CO)NC(=O)[C@H](C)NC(=O)[C@H](Cc2c[nH]cn2)NC(=O)[C@H](CCCCN)NC(=O)[C@@H](C)N(C)C(=O)C[C@@H](C(=O)N2CCCC2)NC(=O)[C@H](Cc2c[nH]c3ccccc23)NC1=O` [PP3] (HELM PEPTIDE1{[C[C@H](C(=O)[*:2])N(C)[*:1]].K.H.A.S.A.W.Y.R.I.W.D.[C1CCN([*:1])C1]}$PEPTIDE1,PEPTIDE1,1:R1-12:R3$$$V2.0) are 8.3 µM and 8.3 µM.
Turning to `CC[C@H](C)[C@@H]1NC(=O)[C@H](Cc2c[nH]c3ccccc23)NC(=O)[C@H](CCCNC(=N)N)NC(=O)[C@H](Cc2ccccc2)NC(=O)[C@H](CCC(N)=O)NC(=O)[C@H](C)NC(=O)[C@H](Cc2ccccc2)NC(=O)[C@H](CCCCN)NC(=O)[C@H](C)N(C)C(=O)C[C@@H](C(=O)N2CCCC2)NC(=O)[C@@H]2CCCN2C(=O)[C@H](Cc2ccc(O)cc2)NC1=O` [PP11] (HELM PEPTIDE1{[meA].K.F.A.Q.F.R.W.I.Y.P.D.[C1CCN([*:1])C1]}$PEPTIDE1,PEPTIDE1,1:R1-12:R3$$$V2.0), the IC50 in assay [1] (setting [4]) and in assay [2] (setting [6]) was more than 62.1 µM throughout.
With `CC[C@H](C)[C@@H]1NC(=O)[C@H](CC(=O)O)NC(=O)[C@H](C)N(C)C(=O)C[C@@H](C(=O)N2CCCC2)NC(=O)[C@H](Cc2ccc(O)cc2)NC(=O)[C@H](CC(=O)O)NC(=O)[C@H](Cc2c[nH]c3ccccc23)NC(=O)[C@H](Cc2ccc(O)cc2)NC(=O)[C@H](CC(=O)O)NC(=O)[C@H](Cc2ccccc2)NC(=O)[C@H](Cc2c[nH]c3ccccc23)NC1=O` [PP18] (HELM PEPTIDE1{[meA].D.I.W.F.D.Y.W.D.Y.D.[C1CCN([*:1])C1]}$PEPTIDE1,PEPTIDE1,1:R1-11:R3$$$V2.0), the IC50 is 0.2 µM in assay [1] (setting [4]) and less than 0.06 µM in assay [2] (setting [6]).
